Experimental data published in US7119073B2, “Peptides and their use as inhibitors of hepatitis C virus ns3 protease” (Istituto Di Ricerche Di Biologia Molecolare P. Angeletti SpA, priority 2001, dated 2006).
Where two headings read alike, the source gives them in different places.

Tests used:
[1] = target: T1, full length NS3 protein noncovalently complexed with the full-length NS4A cofactor protein (NS3/NS4A complex) (Hepatitis C virus genotype 1b, UniProt P26663); test: Full-length NS3-NS4A heterodimer protein assay (Assay A); assay type: biochemical, hepatitis C virus (HCV)
T1 construct: full length NS3 protein spanning residues 1027–1657 of the HCV polyprotein
T1 sequence (P26663 1027-1657): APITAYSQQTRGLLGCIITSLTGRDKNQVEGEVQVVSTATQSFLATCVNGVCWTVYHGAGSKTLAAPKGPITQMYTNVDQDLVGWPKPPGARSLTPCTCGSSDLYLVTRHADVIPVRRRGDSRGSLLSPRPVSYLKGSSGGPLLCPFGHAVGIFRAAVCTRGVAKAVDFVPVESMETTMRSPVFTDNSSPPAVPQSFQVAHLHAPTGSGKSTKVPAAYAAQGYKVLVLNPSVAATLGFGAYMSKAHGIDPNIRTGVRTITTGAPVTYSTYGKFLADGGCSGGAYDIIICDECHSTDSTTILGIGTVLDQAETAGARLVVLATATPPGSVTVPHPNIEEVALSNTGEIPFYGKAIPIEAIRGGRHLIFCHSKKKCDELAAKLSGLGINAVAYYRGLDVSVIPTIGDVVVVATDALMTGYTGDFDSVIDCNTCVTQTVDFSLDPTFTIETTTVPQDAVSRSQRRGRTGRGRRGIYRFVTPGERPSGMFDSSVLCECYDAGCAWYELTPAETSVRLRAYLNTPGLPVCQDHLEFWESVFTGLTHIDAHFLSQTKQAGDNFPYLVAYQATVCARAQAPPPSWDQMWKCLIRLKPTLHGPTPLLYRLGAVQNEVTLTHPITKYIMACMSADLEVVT
T1 sequence (P26663 1658-1711): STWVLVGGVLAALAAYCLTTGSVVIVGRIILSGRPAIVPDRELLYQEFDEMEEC
Experimental: Full-Length NS3-NS4A Heterodimer Protein Assay (Assay A)
(Gallinari, P., Paolini, C., Brennan, D., Nardi, C., Steinkühler, C. and De Francesco, R. Modulation of hepatitis C virus NS3 protease and helicase activities through the interaction with NS4A. Biochemistry 38, 5620–5632, 1999)
In this assay the full length NS3 protein spanning residues 1027–1657 of the HCV polyprotein, noncovalently complexed with the full-length NS4A cofactor protein (residues 1658–1711) was used. Assays were performed in 60 μl of a buffer containing 50 mM Hepes pH 7.5, 0.15 M NaCl, 0.1% (v/v) Triton X-100, 15% (v/v) glycerol, 10 mM DTT, 2 nM NS3/NS4A complex. To this assay mix 10 μM (final concentration) of a peptide substrate corresponding to the NS5AB cleavage site and having the sequence of the NS5A-NS5B peptide, were added. Incubation times at 23° C. were adjusted to obtain <10% conversion. Reactions were stopped by the addition of 40 μl of 1% TFA. Cleavage was determined by HPLC using a Merck-Hitachi chromatograph equipped with an autosampler. 80 μl samples were injected on a Lichrospher C18 reversed phase cartridge column (4×74 mm, 5 μm, Merck) and fragments were separated using a 10–40% acetonitrile gradient at 5%/min using a flow rate of 2.5 ml/min. Peak detection was done by monitoring both the absorbance at 220 nm and tryptophan fluorescence (λex=280 nm, λem=350 nm). Cleavage products were quantitated by integration of chromatograms with respect to appropriate standards. Kinetic parameters were calculated from nonlinear least-squares fit of initial rates as a function of substrate concentration with the help of a Kaleidagraph software, assuming Michaelis-Menten kinetics.
Ki values of peptide inhibitors were calculated from substrate titration experiments performed in the presence of increasing amounts of inhibitor. Experimental data sets were simultaneously fitted to eg.1 using a multicurve fit macro with the help of a Sigmaplot software: V=(VmaxS)/(Km([…])+S); (eq.1) Alternatively, Ki values were derived from IC50 values, calculated using a four-parameter logistic function, according to eq.2: IC50=(1+S/Km)Ki (eq.2)

[2] = target: T2, NS3 protease domain complexed to a modified form of the NS4A peptide (Pep4AK) (Hepatitis C virus genotype 1b, UniProt P26663); test: HCV NS3 protease domain/NS4A cofactor peptide assay (Assay B); assay type: biochemical
T2 construct: NS3 protease domain (residues 1027–1206 of the HCV polyprotein)
T2 sequence (P26663 1027-1206, other chains not shown): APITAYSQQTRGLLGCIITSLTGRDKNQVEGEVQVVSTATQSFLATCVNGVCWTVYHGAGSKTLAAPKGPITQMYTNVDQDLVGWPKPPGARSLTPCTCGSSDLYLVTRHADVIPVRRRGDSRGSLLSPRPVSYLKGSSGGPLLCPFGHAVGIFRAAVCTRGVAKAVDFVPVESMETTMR

[3] = Table 5, full-length NS3/NS4A, read-out: AssayA
[4] = Table 1, NS3 protease domain/Pep4AK, 4AB peptide substrate, read-out: Assay B

Compound	IC50 [1, 3]	other results
O=C(O)CC[C@H](NC(=O)[C@@H](O)c1ccccc1)C(=O)N1C[C@H](c2ccccc2)C[C@H]1C(=O)N[C@@H](CS)C(=O)NCCc1ccc(C(=O)O)cc1 [Compound 515]	< 100 µM	–
CC(C)C[C@H](NC(=O)C1(Cc2ccsc2C(=O)O)Cc2ccccc2N1)C(=O)N[C@@H](CC(F)F)C(=O)NCCc1cc2ccccc2[nH]1 (single isomer, unassigned) [Compound 707a]	–	IC50 ([1]; full-length NS3-NS4A heterodimer protein assay, read-out: Assay A (IC50 class)): < 100 µM
CC(C)COC(=O)N[C@H](C(=O)N1C[C@H](c2ccccc2)C[C@H]1C(=O)N[C@@H](CS)C(=O)NCCc1ccc(C(=O)O)cc1)C(C)C [Compound 516]	< 10 µM	–
CC(C)COC(=O)NC(C(=O)NC(CC(C)C)C(=O)NC(CC(F)F)C(=O)NCCc1ccccc1CCC(=O)O)C(C)C (stereo not shown) [Compound 125]	–	IC50 ([1]; Table 1, full-length NS3/NS4A, NS5A-NS5B peptide substrate, read-out: Assay A): < 100 µM
CCOC(=O)/C=C/c1cccc(CCNC(=O)[C@H](CC(F)F)NC(=O)[C@@H]2C[C@@H](c3ccccc3)CN2C(=O)[C@@H](NC(=O)OCC(C)C)C(C)C)c1 [Compound 559]	< 100 µM	–
CC(C)[C@H](O)C(=O)N1C[C@H](OCCCc2ccccc2)CC1C(=O)N[C@@H](CC(F)F)C(=O)NCCc1c(F)cc(C(=O)O)cc1F (stereo partly shown) [Compound 616]	–	IC50 ([1]; Table 6, full-length NS3/NS4A, read-out: Assay A): < 100 µM
COc1cccc(S(=O)(=O)[C@@H]2C[C@@H](C(=O)N[C@@H](CC(F)F)C(=O)NCCc3c(F)cc(C(=O)O)cc3F)N(C(=O)[C@@H](NC(=O)OCC(C)C)C(C)C)C2)c1 [Compound 547]	< 1 µM	–
CC(C)COC(=O)N[C@H](C(=O)N1C[C@H](c2ccccc2)C[C@H]1C(=O)N[C@@H](CC(F)F)C(=O)NCCc1cc(/C=C/C(=O)O)ccc1F)C(C)C [Compound 561]	< 1 µM	–
CC(C)COC(=O)N[C@H](C(=O)N1C[C@H](c2ccccc2)C[C@H]1C(=O)N[C@@H](CC(F)F)C(=O)NCCc1cccc(OCC(=O)O)c1)C(C)C [Compound 562]	< 100 µM	–
CC(C)COC(=O)N[C@@H](CCC(=O)O)C(=O)N1C[C@H](OCc2ccccc2)C[C@H]1C(=O)N[C@@H](CS)C(=O)NCCc1ccccc1Cl [Compound 507]	< 10 µM	–
CCC(Oc1ccc(F)c(CCNC(=O)[C@H](CC(F)F)NC(=O)[C@@H]2C[C@@H](C3CCCCC3)CN2C(=O)[C@@H](NC(=O)OCC(C)C)C(C)C)c1F)C(=O)O (mixture of isomers) [Compound 568]	< 1 µM	–
CC(C)COC(=O)N[C@H](C(=O)N1C[C@H](c2ccccc2)C[C@H]1C(=O)N[C@@H](CC(F)F)C(=O)NCCc1cccc(NC(C(=O)O)c2ccccc2)c1)C(C)C (mixture of isomers) [Compound 564]	< 10 µM	–
CC(C)COC(=O)N[C@H](C(=O)N1C[C@H](c2ccccc2)C[C@H]1C(=O)N[C@@H](CC(F)F)C(=O)NCCc1c[nH]c2ccccc12)C(C)C [Compound 574]	< 100 µM	–
CC(C)COC(=O)N[C@@H](CCC(=O)O)C(=O)N1C[C@H](c2ccccc2)C[C@H]1C(=O)N[C@@H](CC(F)F)C(=O)NCCC1=CCCCC1 [Compound 511]	< 100 µM	–
COc1ccc2c(O[C@@H]3C[C@@H](C(=O)N[C@@H](CC(F)F)C(=O)NCCc4c(F)cc(C(=O)O)cc4F)N(C(=O)[C@@H](NC(=O)OC(C)(C)C)C(C)(C)C)C3)cc(-c3ccccc3)nc2c1 [Compound 576]	< 1 µM	–
CC(C)COC(=O)N[C@H](C(=O)N1C[C@H](C2CCCCC2)C[C@H]1C(=O)N[C@@H](CC(F)(F)F)C(=O)NCCc1c(F)cc(C(=O)O)cc1F)C(C)C [Compound 529]	< 10 µM	–
CC(C)COC(=O)NC(C(=O)N1CCCC1C(=O)NC(CC(F)F)C(=O)NCCc1c(F)cc(C(=O)O)cc1F)C(C)C (stereo not shown) [Compound 502]	< 10 µM	–
CC(C)[C@H](NC(=O)OCC1CCCC1)C(=O)N1C[C@H](C2CCCCC2)C[C@H]1C(=O)N[C@@H](CC(F)F)C(=O)NCCc1c(F)cc(C(=O)O)cc1F [Compound 542]	< 10 µM	–
CC(Oc1ccc(F)c(CCNC(=O)[C@H](CC(F)F)NC(=O)[C@@H]2C[C@@H](C3CCCCC3)CN2C(=O)[C@@H](NC(=O)OCC(C)(C)C)C(C)C)c1F)C(=O)O (mixture of isomers) [Compound 567]	< 1 µM	–
CC(C)COC(=O)N[C@H](C(=O)N1C[C@H](OCc2ccccc2)CC1C(=O)N[C@@H](CC(F)F)C(=O)NCCc1c(F)cc(C(=O)O)cc1F)C(C)C (stereo partly shown) [Compound 526]	< 1 µM	–

Compound	IC50 [1, 3]	other results
CC[C@@H](C)[C@H](NC(=O)OCC(C)C)C(=O)N1C[C@H](C2CCCCC2)C[C@H]1C(=O)N[C@@H](CC(F)F)C(=O)NCCc1c(F)cc(C(=O)O)cc1F [Compound 535]	< 1 µM	–
CC[C@H](C)[C@H](NC(=O)OCC(C)C)C(=O)N1C[C@H](C2CCCCC2)C[C@H]1C(=O)N[C@@H](CC(F)F)C(=O)NCCc1c(F)cc(C(=O)O)cc1F [Compound 533]	< 1 µM	–
COC(=O)c1ccc(CCNC(=O)[C@H](CS)NC(=O)[C@@H]2C[C@@H](c3ccccc3)CN2C(=O)[C@H](CCC(=O)O)NS(=O)(=O)c2cccc3ccccc23)cc1 [Compound 514]	< 100 µM	–
CC(C)COC(=O)N[C@@H](CCC(=O)O)C(=O)N1C[C@H](c2ccccc2)C[C@H]1C(=O)N[C@@H](CS)C(=O)NCCc1ccccc1Br [Compound 508]	< 100 µM	–
CC(C)COC(=O)N[C@H](C(=O)N1C[C@H](c2ccccc2)C[C@H]1C(=O)N[C@@H](CC(F)F)C(=O)NCCc1cccc(OC(C(=O)O)c2ccccc2)c1)C(C)C (mixture of isomers) [Compound 569]	< 10 µM	–
CC(C)COC(=O)N[C@@H](CCC(=O)O)C(=O)N1C[C@H](c2ccccc2)CC1C(=O)N[C@@H](CS)C(=O)NCCc1ccccc1Cl (stereo partly shown) [Compound 506]	< 10 µM	–
CC(C)COC(=O)N[C@H](C(=O)N1C[C@H](c2ccccc2)C[C@H]1C(=O)N[C@@H](CC(F)F)C(=O)NCCc1c(F)cc(-c2nn[nH]n2)cc1F)C(C)C [Compound 554]	< 1 µM	–
CC(C)COC(=O)N[C@@H](CCC(=O)O)C(=O)N1C[C@H](c2ccccc2)C[C@H]1C(=O)N[C@@H](CC(F)F)C(=O)NCCc1ccccc1-c1ccccc1 [Compound 510]	< 10 µM	–
CC(C)COC(=O)N[C@@H](CCC(=O)O)C(=O)N1C[C@H](O)C[C@H]1C(=O)N[C@@H](CS)C(=O)NCCc1ccccc1Cl [Compound 503]	< 100 µM	–
CC(C)COC(=O)N[C@H](C(=O)N1C[C@H](c2ccccc2)C[C@H]1C(=O)N[C@@H](CS)C(=O)NCCc1ccc(C(=O)O)cc1Cl)C(C)C [Compound 521]	< 1 µM	–
CC(C)COC(=O)N[C@H](C(=O)N1C[C@H](C2CCCCC2)C[C@H]1C(=O)N[C@@H](CC(F)F)C(=O)NCCc1c(F)ccc(OCC(=O)O)c1F)C(C)C [Compound 565]	< 1 µM	–
O=C(O)CC[C@H](NS(=O)(=O)c1cccc2ccccc12)C(=O)N1C[C@H](c2ccccc2)C[C@H]1C(=O)N[C@@H](CS)C(=O)NCCc1ccc(C(=O)O)cc1 [Compound 513]	< 100 µM	–
CC(C)COC(=O)N[C@@H](CCC(=O)O)C(=O)N1C[C@H](c2ccccc2)C[C@H]1C(=O)N[C@@H](CC(F)F)C(=O)NCCc1c[nH]c2ccccc12 [Compound 575]	< 100 µM	–
CCC(Nc1cccc(CCNC(=O)[C@H](CC(F)F)NC(=O)[C@@H]2C[C@@H](c3ccccc3)CN2C(=O)[C@@H](NC(=O)OCC(C)C)C(C)C)c1)C(=O)O (mixture of isomers) [Compound 563]	< 10 µM	–
CC(C)C[C@H](NC(=O)[C@@H](NC(=O)OCc1ccc(C(=O)O)cc1)C(C)C)C(=O)N[C@@H](CS)C(=O)NCCc1ccccc1 [Compound 102]	–	IC50 [2, 4]: < 100 µM
CC(C)COC(=O)NC(CCC(=O)O)C(=O)NC(CC(C)C)C(=O)NC(CS)C(=O)NCCc1c[nH]c2ccccc12 (stereo not shown) [Compound 189]	–	IC50 [2, 4]: < 100 µM
CC(C)COC(=O)NC(CCC(=O)O)C(=O)NC(CC(C)C)C(=O)NC(CS)C(=O)NCCc1ccccc1Br (stereo not shown) [Compound 117]	–	IC50 [2, 4]: < 100 µM
CC(C)C[C@H](NC(=O)C1(Cc2cccc(C(=O)O)c2)Cc2ccccc2N1)C(=O)N[C@@H](CS)C(=O)NCCc1ccc(C(=O)O)cc1 (mixture of isomers) [Compound 701]	–	IC50 ([2]; NS3 protease domain/NS4A cofactor peptide assay, read-out: Assay B (IC50 class)): < 100 µM
CC(C)C[C@H](NC(=O)[C@H](CCC(=O)O)NC(=O)Cc1ccccc1)C(=O)N[C@@H](CS)C(=O)NCCc1ccccc1Cl [Compound 215]	–	IC50 ([2]; Table 2, NS3 protease domain/Pep4AK, read-out: Assay B): < 100 µM
CC(C)COC(=O)N[C@@H](CCC(=O)O)C(=O)N[C@@H](CC1CCCCC1)C(=O)N[C@@H](CS)C(=O)NCCc1ccc(C(=O)O)cc1 [Compound 409]	–	IC50 ([2]; Table 4, NS3 protease domain/Pep4AK, read-out: Assay B): < 10 µM
